Legend:
Assay type in all cases: biochemical
human MAGL = target: T1, human MAGL (Homo sapiens, UniProt Q99685); assay: MAGL activity assay (AA-HNA fluorogenic substrate); conditions: 100 µM, AA-HNA substrate assay, Supplementary Table 1; read-out: MAGL Inhibition (%)
T1 construct: expressed in transfected cells; host or cells: HEK293T (transient transfection; membrane fraction)
T1 sequence (Q99685 1-303): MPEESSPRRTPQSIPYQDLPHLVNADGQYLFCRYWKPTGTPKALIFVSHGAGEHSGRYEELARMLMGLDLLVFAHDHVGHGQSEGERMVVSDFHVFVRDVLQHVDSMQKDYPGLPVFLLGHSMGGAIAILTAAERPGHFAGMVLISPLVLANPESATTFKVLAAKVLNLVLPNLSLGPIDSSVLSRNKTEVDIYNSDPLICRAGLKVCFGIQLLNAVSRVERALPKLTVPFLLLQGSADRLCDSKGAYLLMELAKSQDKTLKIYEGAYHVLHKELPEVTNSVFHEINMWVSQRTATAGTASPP
Protocol: (§1) HEK293T cells were cultured at 37°C under 5% CO2 in a DMEM medium with stable glutamine and phenolred, containing 10% fetal bovine serum (FBS, Gibco), penicillin, and streptomycin. The cells were passaged every 2–3 days by resuspension in the medium at ∼90% confluence. The membranes used in this study were prepared from transiently transfected HEK293T cells. Briefly, 1 day prior to transfection, ∼10^7 cells were seeded in 15 cm plates, and then the cells were transfected by the addition of a mixture of polyethyleneimine and plasmid DNA (3:1, 60, and 20 µg) in 2 ml of medium (without serum). Of note, the empty pcDNA3.1 vector was used in the Mock-control. After 24 h, the medium was removed and the cells were refreshed with fresh medium. After 72 h, the cells were harvested by suspending in 20 ml of medium, and the supernatant was removed by centrifugation for 10 min at 1,000 rpm. The cell pellet was flash frozen in liquid nitrogen and stored at −80°C until use. Subsequently, the cell pellets were suspended in lysis buffer (30 mM Tirs, pH 7.5, 1 mM MgCl2, 25 U/ml Benzonase), which was homogenized by sonication (3 × 10 bursts) and incubated for 30 min on ice. The membrane fractions overexpressing MAGL/ABHD6/ABHD12 were separated by ultracentrifuge (100,000 g, 30 min, 4 C). The protein concentration was determined with a Qubit protein assay (Invitrogen). The protein samples were quickly frozen in liquid nitrogen and stored at −80 C until use.
The MAGL activity assay is based on the hydrolysis of 2-arachidonoylglycerol-based fluorogenic substrate by MAGL-overexpressing membrane preparations from transiently transfected HEK293T cells. In brief, the reactions were performed in HEPES buffer (40 mM HEPES, pH 7.5, 0.1 mg/ml BSA) in black, flat bottom 96-well plates. […] After the incubation of the inhibitor-protein complex for 30 min, 10 µl of the fluorogenic substrate (AA-HNA, 200 µM) was added and fluorescence was measured in 1 min intervals for 30 min on a plate reader (BioTek). […] All the measurements were performed in N = 2, n = 2 for inhibitors and N = 2, n = 4 for controls with Z′ value ≥0.6. The slope is determined in 5–15 min for all the experiments.

human ABHD6 = target: T2, human ABHD6 (Homo sapiens, UniProt Q9BV23); assay: ABHD6 activity assay (AA-HNA fluorogenic substrate); conditions: for activity / activity at 100 µM: 100 µM, AA-HNA substrate assay, Supplementary Table 2, read-out: ABHD6 Inhibition (%)
T2 construct: expressed in transfected cells; host or cells: HEK293T (transient transfection; membrane fraction)
T2 sequence (Q9BV23 1-337): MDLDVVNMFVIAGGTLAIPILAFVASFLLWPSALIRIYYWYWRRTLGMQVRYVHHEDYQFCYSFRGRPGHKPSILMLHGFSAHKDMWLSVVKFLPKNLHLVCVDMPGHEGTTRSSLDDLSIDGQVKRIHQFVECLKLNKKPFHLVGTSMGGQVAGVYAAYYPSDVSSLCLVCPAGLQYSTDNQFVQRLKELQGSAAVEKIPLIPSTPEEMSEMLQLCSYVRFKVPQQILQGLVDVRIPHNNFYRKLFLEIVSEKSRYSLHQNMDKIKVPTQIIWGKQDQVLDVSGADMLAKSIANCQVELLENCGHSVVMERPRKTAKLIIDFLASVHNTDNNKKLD
Protocol: as §1
The MAGL activity assay is based on the hydrolysis of 2-arachidonoylglycerol-based fluorogenic substrate by MAGL-overexpressing membrane preparations from transiently transfected HEK293T cells. In brief, the reactions were performed in HEPES buffer (40 mM HEPES, pH 7.5, 0.1 mg/ml BSA) in black, flat bottom 96-well plates. The final protein concentration of membrane fractions from overexpressing human MAGL HEK293T cells was 12.5 μg/ml 5 µl of inhibitors were added from×40 concentrated DMSO stocks in the 96-well plate containing 145 µl assay buffer, followed by the addition of 40 µl of the protein (12.5 μg/ml). After the incubation of the inhibitor-protein complex for 30 min, 10 µl of the fluorogenic substrate (AA-HNA, 200 µM) was added and fluorescence was measured in 1 min intervals for 30 min on a plate reader (BioTek). Final assay concentrations: 12.5 μg/ml MAGL, […], and […] in the total volume of 200 µl. All the measurements were performed in N = 2, n = 2 for inhibitors and N = 2, n = 4 for controls with Z′ value ≥0.6. The slope is determined in 5–15 min for all the experiments.
The ABHD6 activity assay is based on the same principle as the MAGL activity assay described earlier, but with human ABHD6 overexpressing membrane preparations at a final protein concentration of 50 μg/ml and 200 µM AA-HNA. Other conditions are the same as those of the MAGL activity assay.

human ABHD12 = target: T3, human ABHD12 (Homo sapiens, UniProt Q8N2K0); assay: ABHD12 activity by competitive ABPP with FP-TAMRA; conditions: 100 µM compound; competitive ABPP with probe FP-TAMRA (250 nM); read-out: ABHD12 Inhibition (%)
T3 construct: expressed in transfected cells; host or cells: HEK293T (transient transfection; membrane fraction)
T3 sequence (Q8N2K0 1-398): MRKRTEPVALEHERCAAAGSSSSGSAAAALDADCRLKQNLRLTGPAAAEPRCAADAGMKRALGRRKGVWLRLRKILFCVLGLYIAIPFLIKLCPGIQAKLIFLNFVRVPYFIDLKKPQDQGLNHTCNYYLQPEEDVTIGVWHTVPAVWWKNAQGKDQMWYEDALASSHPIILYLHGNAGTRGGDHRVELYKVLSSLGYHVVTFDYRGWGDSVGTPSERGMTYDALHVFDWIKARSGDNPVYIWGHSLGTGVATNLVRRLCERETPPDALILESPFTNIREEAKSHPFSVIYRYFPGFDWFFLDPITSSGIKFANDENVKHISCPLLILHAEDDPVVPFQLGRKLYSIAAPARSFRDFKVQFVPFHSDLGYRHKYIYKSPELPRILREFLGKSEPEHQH
Protocol: as §1
The ABHD12 activity assay is based on competitive activity-based protein profiling (ABPP) with human ABHD12 overexpressing membrane fractions. Briefly, the membrane proteome (1 mg/ml, 20 µl) was incubated at room temperature with 0.5 µl DMSO (vehicle) or inhibitor for 30 min. Subsequently, the samples were treated with the activity-based probe FP-TAMRA (250 nM, final concentration) for 20 min. The reactions were then quenched by 10 µl sample buffer (×4) (final concentrations: 60 mM Tris, pH 6.8, 2% (w/v) SDS, 10% (v/v) glycerol, 5% (v/v) β-mercaptoethanol, 0.01% (v/v) bromophenol blue). The samples were directly loaded and resolved on SDS-PAGE gel (10% acrylamide), which were then scanned using a ChemiDoc MP system (Cy3 settings, BioRad).

Compound | activity (human MAGL) [%] | activity (human ABHD6) [%] | activity (human ABHD12) [%] | activity at 100 µM (human MAGL) [%] | activity at 100 µM (human ABHD6) [%] | activity at 100 µM (human ABHD12) [%] | effect on fluorescent signal of AA-HNA hydrolysis by ABHD6 (human ABHD6; 10 µM)
COc1cc(/C=C/C(=O)O)ccc1O [compound 32, Ferulic Acid] | 104 | 92.4 | 80.8 |  |  |  | 
C[C@@H]1O[C@@H](O[C@H]2[C@H](Oc3cc(O)c4c(c3)O[C@H](c3ccc(O)cc3)CC4=O)O[C@H](CO)[C@@H](O)[C@@H]2O)[C@H](O)[C@H](O)[C@H]1O [compound 55, Naringin] |  |  |  | 104 | 104 | 81.4 | 
O=c1c2ccccc2nc2n1CCc1c-2[nH]c2ccccc12 [compound 71, Rutaecarpine] |  |  |  | 99.2 | 111 | 97 | 
CC(=O)c1c(O)c(C)c(O)c2c1OC1=CC(=O)C(C(C)=O)C(=O)C12C [compound 3, D-Usnic Acid] | 85.6 | 97.9 | 68.8 |  |  |  | 
COc1ccc(-c2oc3c(CC=C(C)C)c(O[C@@H]4O[C@H](CO)[C@@H](O)[C@H](O)[C@H]4O)cc(O)c3c(=O)c2O[C@@H]2O[C@@H](C)[C@H](O)[C@@H](O)[C@H]2O)cc1 [compound 41, Icariin] |  |  |  | 84 | 84.6 | 66 | 
O=c1c(-c2ccc(O)cc2)coc2c([C@@H]3O[C@H](CO)[C@@H](O)[C@H](O)[C@H]3O)c(O)ccc12 [compound 69, Puerarin] |  |  |  | 94.8 | 119 | 104 | 
C=C[C@H]1CN2CC[C@H]1C[C@H]2[C@H](O)c1ccnc2ccccc12 [compound 21, Cinchonidine] |  |  |  | 59.3 | 109 | 77.6 | 
O=C(O)c1cc(=O)[nH]c(=O)[nH]1 [compound 61, Orotic acid] |  |  |  | 101 | 113 | 97.2 | 
O=C(O)[C@H]1O[C@@H](Oc2cc3oc(-c4ccccc4)cc(=O)c3c(O)c2O)[C@H](O)[C@@H](O)[C@@H]1O [compound 15, Baicalin] |  |  |  | 80.3 | 121 | 85.9 | 
OCc1c[nH]c2ccccc12 [compound 42, Ndole-3-carbinol] | 70.6 | 101 | 80.9 |  |  |  | 
COc1ccc2ccc(=O)oc2c1CC=C(C)C [compound 62, Osthole] |  |  |  | 94.5 | 112 | 106 | 
CC1(C)O[C@H]2CC(=O)OC[C@]23[C@H]2CC[C@@]4(C)[C@H](c5ccoc5)OC(=O)[C@H]5O[C@]54[C@]2(C)C(=O)C[C@@H]13 [compound 46, Limonin] |  |  |  | 90.6 | 103 | 83.1 | 
COc1ccc([C@@H]2CC(=O)c3c(O)cc(O[C@@H]4O[C@H](CO)[C@@H](O)[C@H](O)[C@H]4O[C@@H]4O[C@@H](C)[C@H](O)[C@@H](O)[C@H]4O)cc3O2)cc1O [compound 57, Neohesperidin] | 86.8 | 98.7 | 75.6 |  |  |  | 
OC[C@H]1O[C@@H](Oc2ccc(O)cc2)[C@H](O)[C@@H](O)[C@@H]1O [compound 10, Arbutin] |  |  |  | 84.2 | 83.2 | 66.6 | 
COc1ccc([C@@H]2CC(=O)c3c(O)cc(O)cc3O2)cc1O [compound 37, Hesperetin] |  |  |  | 90.9 | 104 | 83.6 | 
COc1c(O)cc2c(c1O)[C@@H]1O[C@H](CO)[C@@H](O)[C@H](O)[C@H]1OC2=O [compound 16, Bergenin] |  |  |  | 124 | 110 | 88 | 
O=C(/C=C/C=C/c1ccc2c(c1)OCO2)N1CCCCC1 [compound 68, Piperine] |  |  |  | 99.7 | 112 | 90.8 | 
O=[N+]([O-])c1ncc[nH]1 [compound 13, Azomycin] |  |  |  | 89.9 | 112 | 87.7 | 
Cc1cc(=O)oc2cc(O)ccc12 [compound 5, 4-Methylumbelliferone] |  |  |  | 90.1 | 92.5 | 71 | 
C[C@H]1[C@H](OC(=O)CCC(=O)O)O[C@@H]2O[C@@]3(C)CC[C@H]4[C@H](C)CC[C@@H]1[C@@]24OO3 [compound 11, Artesunate] |  |  |  | 106 | 46.5 | 56.2 | 
CCn1cc(C(=O)O)c(=O)c2ccc(C)nc21 [compound 54, Nalidixic acid] |  |  |  | 143 | 100 | 82.2 | 
O=C(/C=C/c1ccc(O)c(O)c1)O[C@@H]1C[C@](O)(C(=O)O)C[C@@H](O)[C@H]1O [compound 20, Chlorogenic acid] |  |  |  | 95.2 | 102 | 78.1 | 
O=c1c(O)c(-c2cc(O)c(O)c(O)c2)oc2cc(O)cc(O)c12 [compound 52, Myricetin] |  |  |  | 41.2 | 100 | 63.9 | 
O=C(c1cccc(-c2ccc(-c3cn(C(=O)N4CCCCC4c4ccccc4)nn3)cc2)c1)N1CCCCC1 (stereo not shown) [KT185, reference compound] |  |  |  |  |  |  | blocked

— PMC9465256, “Discovering monoacylglycerol lipase inhibitors by a combination of fluorogenic substrate assay and activity-based protein profiling” (Frontiers in Pharmacology, 2022)
